Reference: ChEMBL document CHEMBL2146425, “Solid-phase synthesis and biological evaluation of Joro spider toxin-4 from Nephila clavata” (J Nat Prod, 2011)

Key:
Glutamate receptor 1 = Glutamate receptor 1 (Rattus norvegicus, UniProt P19490); test: Inhibition of rat GluA1 expressed in xenopus laevis oocytes assessed as inhibition of glutamate-evoked current at membrane potential of -60 mV by voltage-clamp electrophysiology; type: cell-based, Oocyte
[1] = target: Glutamate NMDA receptor; Grin1/Grin2a (Rattus norvegicus, UniProt P35439+Q00959); test: Inhibition of rat GluN1/2A expressed in xenopus laevis oocytes assessed as inhibition of glycine-evoked current at membrane potential of -60 mV by voltage-clamp electrophysiology; type: cell-based, Oocyte
[2] = target: Glutamate NMDA receptor; Grin1/Grin2a (Rattus norvegicus) (UniProt P35439+Q00959); test: Inhibition of rat GluN1/2A expressed in xenopus laevis oocytes assessed as inhibition of glycine-evoked current at membrane potential of -60 mV at 100 uM by voltage-clamp electrophysiology; type: cell-based; settings: Oocyte
[3] = target: Glutamate receptor 1 (Rattus norvegicus) (UniProt P19490); test: Inhibition of rat GluA1 expressed in xenopus laevis oocytes assessed as inhibition of glutamate-evoked current at membrane potential of -60 mV at 100 uM by voltage-clamp electrophysiology; type: cell-based; settings: Oocyte
Sequence of Glutamate receptor 1 (Rattus norvegicus) (P19490 whole entry): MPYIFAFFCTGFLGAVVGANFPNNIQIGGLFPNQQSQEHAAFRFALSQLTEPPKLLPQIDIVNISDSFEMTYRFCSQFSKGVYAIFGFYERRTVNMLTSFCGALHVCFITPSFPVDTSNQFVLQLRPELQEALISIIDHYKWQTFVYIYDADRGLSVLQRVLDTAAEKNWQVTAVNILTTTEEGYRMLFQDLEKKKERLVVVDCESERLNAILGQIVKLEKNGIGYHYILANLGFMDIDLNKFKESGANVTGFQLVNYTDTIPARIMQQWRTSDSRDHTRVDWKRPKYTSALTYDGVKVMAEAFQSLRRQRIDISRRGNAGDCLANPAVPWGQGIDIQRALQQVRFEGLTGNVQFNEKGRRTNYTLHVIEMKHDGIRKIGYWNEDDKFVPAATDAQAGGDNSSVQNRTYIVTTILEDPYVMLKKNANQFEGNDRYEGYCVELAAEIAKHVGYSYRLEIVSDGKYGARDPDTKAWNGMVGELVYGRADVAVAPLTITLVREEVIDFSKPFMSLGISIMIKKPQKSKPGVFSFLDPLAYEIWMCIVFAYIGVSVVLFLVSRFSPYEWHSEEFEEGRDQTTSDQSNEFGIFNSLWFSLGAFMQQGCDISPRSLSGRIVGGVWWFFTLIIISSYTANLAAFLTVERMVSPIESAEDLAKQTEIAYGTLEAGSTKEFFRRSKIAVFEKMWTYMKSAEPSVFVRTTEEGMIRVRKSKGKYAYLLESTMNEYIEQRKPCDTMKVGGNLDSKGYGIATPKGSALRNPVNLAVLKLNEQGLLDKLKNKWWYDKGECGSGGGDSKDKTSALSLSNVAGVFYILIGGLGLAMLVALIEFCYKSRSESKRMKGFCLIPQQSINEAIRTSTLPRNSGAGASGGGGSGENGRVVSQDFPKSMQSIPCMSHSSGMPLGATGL

Sequence of Glutamate receptor 1 (P19490 whole entry): as above

SMILES | IC50 (Glutamate receptor 1) [nM] | IC50 [1] [nM] | inhibition [2] [%] | inhibition [3] [%]
N=C(N)NCCC[C@H](N)C(=O)NCCCNCCCNCCCCCNC(=O)[C@H](CC(N)=O)NC(=O)Cc1ccc(O)cc1O | 77 | 74 |  | 
N=C(N)NCCC[C@H](N)C(=O)N[C@@H](CCCN)C(=O)NCCCCCNC(=O)[C@H](CC(N)=O)NC(=O)Cc1ccc(O)cc1O |  |  | 25 | 25
